Data on 12 compounds can be found in ChEMBL document CHEMBL5291721, “A preclinical secondary pharmacology resource illuminates target-adverse drug reaction associations of marketed drugs” (Nat Commun, 2023).

Test [1] addresses Neuronal acetylcholine receptor subunit alpha-4 (Homo sapiens, UniProt P43681).
For test [2], the target named is T1, Prostaglandin G/H synthase 1 (Rattus norvegicus, UniProt Q63921).
T1 sequence (Q63921 whole entry): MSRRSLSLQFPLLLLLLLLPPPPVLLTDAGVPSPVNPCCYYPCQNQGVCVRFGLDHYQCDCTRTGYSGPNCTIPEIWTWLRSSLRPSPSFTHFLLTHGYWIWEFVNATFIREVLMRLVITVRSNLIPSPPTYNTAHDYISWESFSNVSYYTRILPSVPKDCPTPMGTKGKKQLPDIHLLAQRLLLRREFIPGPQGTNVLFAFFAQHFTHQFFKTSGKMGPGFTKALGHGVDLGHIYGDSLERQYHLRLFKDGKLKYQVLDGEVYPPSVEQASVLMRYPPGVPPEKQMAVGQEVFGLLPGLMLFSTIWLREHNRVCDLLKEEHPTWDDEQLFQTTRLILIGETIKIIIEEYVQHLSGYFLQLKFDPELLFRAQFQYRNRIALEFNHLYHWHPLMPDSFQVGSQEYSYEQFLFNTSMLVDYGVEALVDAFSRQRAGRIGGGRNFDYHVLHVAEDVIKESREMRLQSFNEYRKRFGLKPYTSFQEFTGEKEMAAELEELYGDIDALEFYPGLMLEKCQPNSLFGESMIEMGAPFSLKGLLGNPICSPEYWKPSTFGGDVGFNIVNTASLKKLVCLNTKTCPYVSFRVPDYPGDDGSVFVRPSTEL
It counts as functional.

The target in test [3] is T2, Alpha-2A adrenergic receptor (Homo sapiens, UniProt P08913).
T2 sequence (P08913 whole entry): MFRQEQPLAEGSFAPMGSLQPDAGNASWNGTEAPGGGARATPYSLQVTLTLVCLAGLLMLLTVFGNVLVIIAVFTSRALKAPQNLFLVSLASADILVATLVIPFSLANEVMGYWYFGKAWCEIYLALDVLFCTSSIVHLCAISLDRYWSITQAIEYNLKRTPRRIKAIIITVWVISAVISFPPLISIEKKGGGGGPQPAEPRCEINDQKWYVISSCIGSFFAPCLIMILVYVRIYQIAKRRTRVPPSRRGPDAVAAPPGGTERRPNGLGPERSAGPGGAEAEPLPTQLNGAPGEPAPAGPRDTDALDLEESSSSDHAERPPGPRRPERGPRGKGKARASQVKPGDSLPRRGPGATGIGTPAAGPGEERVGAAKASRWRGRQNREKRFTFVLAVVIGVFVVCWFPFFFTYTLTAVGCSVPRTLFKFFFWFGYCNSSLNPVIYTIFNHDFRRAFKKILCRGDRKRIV
It counts as functional, cell-based.

The target in test [4] is T3, 5-hydroxytryptamine receptor 2C (Homo sapiens, UniProt P28335).
T3 sequence (P28335 whole entry): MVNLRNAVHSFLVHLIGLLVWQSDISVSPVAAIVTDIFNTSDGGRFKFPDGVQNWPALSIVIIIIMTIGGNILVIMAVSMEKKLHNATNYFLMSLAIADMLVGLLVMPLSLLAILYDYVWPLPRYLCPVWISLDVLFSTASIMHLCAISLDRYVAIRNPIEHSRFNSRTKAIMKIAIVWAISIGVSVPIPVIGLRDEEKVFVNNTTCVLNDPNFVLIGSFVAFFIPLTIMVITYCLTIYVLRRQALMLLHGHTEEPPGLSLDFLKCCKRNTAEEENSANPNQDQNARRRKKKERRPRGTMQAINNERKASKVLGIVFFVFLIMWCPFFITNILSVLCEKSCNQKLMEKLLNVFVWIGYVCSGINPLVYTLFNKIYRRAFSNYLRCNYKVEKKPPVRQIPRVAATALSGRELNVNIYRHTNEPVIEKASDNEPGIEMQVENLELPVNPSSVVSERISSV

In test [5] the target is Muscarinic acetylcholine receptor M3 (Homo sapiens, UniProt P20309).
In test [6] the target is T4, Muscarinic acetylcholine receptor M2 (Homo sapiens, UniProt P08172).
T4 sequence (P08172 whole entry): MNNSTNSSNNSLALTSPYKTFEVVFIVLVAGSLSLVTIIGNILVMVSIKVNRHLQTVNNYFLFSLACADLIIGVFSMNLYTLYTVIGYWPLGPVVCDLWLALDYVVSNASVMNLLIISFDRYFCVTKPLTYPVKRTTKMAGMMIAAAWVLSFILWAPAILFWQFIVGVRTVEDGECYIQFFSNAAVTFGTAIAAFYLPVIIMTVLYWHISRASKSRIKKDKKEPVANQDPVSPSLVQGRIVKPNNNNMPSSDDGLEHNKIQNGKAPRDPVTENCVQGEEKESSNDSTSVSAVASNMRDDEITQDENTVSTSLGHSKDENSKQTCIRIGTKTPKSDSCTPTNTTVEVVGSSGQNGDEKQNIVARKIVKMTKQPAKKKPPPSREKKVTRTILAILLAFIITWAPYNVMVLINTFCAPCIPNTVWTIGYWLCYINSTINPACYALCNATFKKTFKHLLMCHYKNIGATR
It counts as functional, cell-based.

In test [7] the target is Beta-1 adrenergic receptor (Homo sapiens, UniProt P08588). It counts as functional.
For test [8], the target named is cGMP-inhibited 3',5'-cyclic phosphodiesterase 3A (Homo sapiens, UniProt Q14432). It counts as functional.
A further test deals with T5, Estrogen receptor (Homo sapiens, UniProt P03372).
T5 sequence (P03372 whole entry): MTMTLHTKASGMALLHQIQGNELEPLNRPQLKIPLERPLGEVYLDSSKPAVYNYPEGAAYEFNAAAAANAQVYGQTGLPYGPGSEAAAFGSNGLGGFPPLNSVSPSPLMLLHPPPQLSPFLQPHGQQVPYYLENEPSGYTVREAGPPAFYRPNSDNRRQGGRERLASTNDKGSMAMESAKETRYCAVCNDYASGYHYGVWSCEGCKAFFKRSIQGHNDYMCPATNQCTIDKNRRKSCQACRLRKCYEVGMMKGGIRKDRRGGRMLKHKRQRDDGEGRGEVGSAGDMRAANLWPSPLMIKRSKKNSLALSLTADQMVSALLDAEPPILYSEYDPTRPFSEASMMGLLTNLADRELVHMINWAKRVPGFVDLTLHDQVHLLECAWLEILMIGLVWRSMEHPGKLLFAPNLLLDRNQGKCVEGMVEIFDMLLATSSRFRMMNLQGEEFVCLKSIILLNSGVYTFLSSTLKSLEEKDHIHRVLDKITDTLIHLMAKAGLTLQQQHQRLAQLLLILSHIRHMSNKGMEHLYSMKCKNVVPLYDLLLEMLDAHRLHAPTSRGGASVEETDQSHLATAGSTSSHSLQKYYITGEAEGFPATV

For the next test, the target named is Vasopressin V1a receptor (Homo sapiens, UniProt P37288).
Note: assay procedure not described here.

Sequence of Muscarinic acetylcholine receptor M3 (P20309 whole entry): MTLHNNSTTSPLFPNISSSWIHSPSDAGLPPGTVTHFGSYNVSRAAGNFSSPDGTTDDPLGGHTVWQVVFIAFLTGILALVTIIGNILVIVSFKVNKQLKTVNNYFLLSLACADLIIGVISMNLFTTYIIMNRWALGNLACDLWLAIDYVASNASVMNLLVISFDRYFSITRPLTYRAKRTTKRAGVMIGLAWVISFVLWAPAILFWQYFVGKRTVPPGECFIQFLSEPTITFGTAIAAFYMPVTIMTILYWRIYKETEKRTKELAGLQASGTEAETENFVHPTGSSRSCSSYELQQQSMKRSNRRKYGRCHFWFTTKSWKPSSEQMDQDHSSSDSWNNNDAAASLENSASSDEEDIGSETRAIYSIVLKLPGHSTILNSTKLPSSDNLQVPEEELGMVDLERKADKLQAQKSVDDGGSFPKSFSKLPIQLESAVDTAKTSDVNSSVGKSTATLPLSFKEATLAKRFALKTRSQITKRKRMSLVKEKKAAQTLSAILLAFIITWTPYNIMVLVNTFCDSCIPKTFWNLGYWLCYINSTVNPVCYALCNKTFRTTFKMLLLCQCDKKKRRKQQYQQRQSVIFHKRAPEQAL
Sequence of Vasopressin V1a receptor (P37288 whole entry): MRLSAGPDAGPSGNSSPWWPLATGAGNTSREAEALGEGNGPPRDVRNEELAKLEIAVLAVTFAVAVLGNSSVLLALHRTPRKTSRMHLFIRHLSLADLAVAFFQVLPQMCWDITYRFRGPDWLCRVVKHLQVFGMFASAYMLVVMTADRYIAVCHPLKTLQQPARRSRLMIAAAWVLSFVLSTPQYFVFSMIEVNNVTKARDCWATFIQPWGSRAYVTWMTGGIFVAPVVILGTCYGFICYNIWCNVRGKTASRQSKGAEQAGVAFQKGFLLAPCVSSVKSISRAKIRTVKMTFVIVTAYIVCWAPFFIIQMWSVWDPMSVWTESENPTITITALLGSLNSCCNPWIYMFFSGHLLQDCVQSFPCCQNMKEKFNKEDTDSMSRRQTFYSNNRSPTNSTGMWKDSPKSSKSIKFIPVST
Sequence of Neuronal acetylcholine receptor subunit alpha-4 (P43681 whole entry): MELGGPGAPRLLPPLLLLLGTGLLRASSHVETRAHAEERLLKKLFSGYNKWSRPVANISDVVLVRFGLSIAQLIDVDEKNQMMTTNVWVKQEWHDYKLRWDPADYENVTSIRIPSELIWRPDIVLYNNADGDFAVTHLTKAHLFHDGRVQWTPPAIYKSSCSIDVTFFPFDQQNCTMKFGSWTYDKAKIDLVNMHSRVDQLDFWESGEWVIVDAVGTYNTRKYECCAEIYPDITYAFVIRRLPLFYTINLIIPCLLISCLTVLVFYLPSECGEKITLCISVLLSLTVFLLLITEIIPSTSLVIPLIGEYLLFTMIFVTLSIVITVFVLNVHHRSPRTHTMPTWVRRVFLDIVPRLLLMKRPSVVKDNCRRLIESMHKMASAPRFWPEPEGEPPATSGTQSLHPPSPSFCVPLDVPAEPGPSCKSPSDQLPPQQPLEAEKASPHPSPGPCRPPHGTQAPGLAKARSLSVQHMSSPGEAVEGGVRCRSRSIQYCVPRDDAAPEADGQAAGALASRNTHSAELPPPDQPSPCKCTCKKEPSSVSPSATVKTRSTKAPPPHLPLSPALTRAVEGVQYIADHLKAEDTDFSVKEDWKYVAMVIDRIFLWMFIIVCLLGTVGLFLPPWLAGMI
Sequence of cGMP-inhibited 3',5'-cyclic phosphodiesterase 3A (Q14432 whole entry): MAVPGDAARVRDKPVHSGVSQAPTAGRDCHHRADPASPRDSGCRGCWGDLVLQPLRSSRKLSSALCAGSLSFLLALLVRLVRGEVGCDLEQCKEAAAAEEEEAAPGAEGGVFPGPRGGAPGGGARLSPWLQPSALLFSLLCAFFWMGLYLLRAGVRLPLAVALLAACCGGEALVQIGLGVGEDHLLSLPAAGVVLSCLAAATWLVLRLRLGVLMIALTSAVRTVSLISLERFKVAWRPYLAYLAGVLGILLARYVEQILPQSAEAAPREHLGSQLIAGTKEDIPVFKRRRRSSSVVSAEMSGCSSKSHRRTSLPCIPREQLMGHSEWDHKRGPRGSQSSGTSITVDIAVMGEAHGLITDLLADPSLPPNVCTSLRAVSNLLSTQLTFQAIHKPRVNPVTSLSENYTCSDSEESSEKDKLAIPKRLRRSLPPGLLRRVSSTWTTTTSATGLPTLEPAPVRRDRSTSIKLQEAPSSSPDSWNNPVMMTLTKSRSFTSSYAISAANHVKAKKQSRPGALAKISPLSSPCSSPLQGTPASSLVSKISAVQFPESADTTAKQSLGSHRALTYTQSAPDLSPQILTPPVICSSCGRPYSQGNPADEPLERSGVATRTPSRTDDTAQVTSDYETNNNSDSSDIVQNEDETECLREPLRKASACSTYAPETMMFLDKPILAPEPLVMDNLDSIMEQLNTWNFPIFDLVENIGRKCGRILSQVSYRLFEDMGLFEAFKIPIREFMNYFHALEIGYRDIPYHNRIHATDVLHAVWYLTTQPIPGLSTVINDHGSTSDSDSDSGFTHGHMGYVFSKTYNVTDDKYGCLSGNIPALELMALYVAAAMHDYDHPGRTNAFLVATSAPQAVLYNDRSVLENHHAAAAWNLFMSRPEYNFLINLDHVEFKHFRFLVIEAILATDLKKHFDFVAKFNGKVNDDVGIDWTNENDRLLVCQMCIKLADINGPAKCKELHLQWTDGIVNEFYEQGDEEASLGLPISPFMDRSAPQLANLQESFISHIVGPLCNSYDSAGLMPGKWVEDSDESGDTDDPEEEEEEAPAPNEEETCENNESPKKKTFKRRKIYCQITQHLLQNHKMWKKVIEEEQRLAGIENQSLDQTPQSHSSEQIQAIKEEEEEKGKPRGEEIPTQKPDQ
Sequence of Beta-1 adrenergic receptor (P08588 whole entry): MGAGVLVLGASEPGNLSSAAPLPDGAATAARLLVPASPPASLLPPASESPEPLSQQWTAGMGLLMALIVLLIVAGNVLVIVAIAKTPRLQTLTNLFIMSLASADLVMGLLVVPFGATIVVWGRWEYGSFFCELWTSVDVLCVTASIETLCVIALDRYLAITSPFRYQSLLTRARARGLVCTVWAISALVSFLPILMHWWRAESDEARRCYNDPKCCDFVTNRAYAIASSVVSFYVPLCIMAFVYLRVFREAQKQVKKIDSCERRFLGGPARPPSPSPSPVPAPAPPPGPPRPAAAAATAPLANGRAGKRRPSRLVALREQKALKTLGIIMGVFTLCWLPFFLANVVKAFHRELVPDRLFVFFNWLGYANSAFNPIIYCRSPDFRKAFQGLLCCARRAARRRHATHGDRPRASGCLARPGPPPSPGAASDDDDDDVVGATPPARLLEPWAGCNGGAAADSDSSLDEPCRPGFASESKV

For `CC(=O)SC[C@@H](C)C(=O)N1CCC[C@H]1C(=O)N[C@@H](Cc1ccccc1)C(=O)O`, the AC50 in test [1], in test [2], in [3], in test [4], in test [5] and in [6] was more than 30 µM throughout. For the same compound, the AC50 (in [7]; in test [8]; at Estrogen receptor; at Vasopressin V1a receptor) was more than 30 µM each time.

With `C[N@+]1(CCF)[C@@H]2CC[C@H]1C[C@@H](OC(=O)C(O)(c1ccccc1)c1ccccc1)C2`, the concentration at half-maximal activity (AC50) in test [1] was more than 30 µM; in test [2], more than 10 µM; in test [3], more than 30 µM; in [4], more than 30 µM; in [5], 0.0031 µM; in test [6] it was 0.0145 µM. Moreover, the AC50 (in test [7]; in test [8]; at Estrogen receptor; at Vasopressin V1a receptor) was more than 30 µM each time.

Take `CC(=O)O[C@H](CC(=O)[O-])C[N+](C)(C)C` [ACETYLCARNITINE]: the AC50 was more than 30 µM in test [1]; more than 10 µM in [2]; more than 30 µM in test [3]; more than 30 µM in test [4]; more than 30 µM in test [5]; more than 30 µM in [6]. In addition, the AC50 (in test [7]; in test [8]; on Estrogen receptor; at Vasopressin V1a receptor) was more than 30 µM throughout.

As for `CCN1CCCC1CNC(=O)c1cc(S(=O)(=O)CC)c(N)cc1OC` (stereo unspecified) [AMISULPRIDE], the AC50 in test [1] is more than 30 µM; in [2], 29 µM; in [3], 13 µM; in test [4], more than 30 µM; in test [5], more than 30 µM; in [6], more than 30 µM. Moreover, the AC50 (in test [7]; in test [8]; at Estrogen receptor) was more than 30 µM in each case.

In the case of `O=C1CN=C(c2ccccn2)c2cc(Br)ccc2N1` [BROMAZEPAM], the AC50 in test [1] is more than 10 µM; in test [2], more than 10 µM; in test [3] it was more than 10 µM; in test [4] it was more than 30 µM; in test [5], more than 30 µM; in [6], more than 10 µM. Also, the AC50 in test [7] was more than 10 µM; in test [8] it was more than 30 µM; on Estrogen receptor, more than 10 µM; on Vasopressin V1a receptor it was more than 10 µM.

With `Oc1ccc2c(c1)[C@@]13CCCC[C@@]1(O)[C@@H](C2)N(CC1CCC1)CC3` [BUTORPHANOL], the AC50 in test [1], in [2], in [3], in [4], in test [5] and in [6] was more than 30 µM each time. Further, the AC50 (in test [7]; in test [8]; on Estrogen receptor; on Vasopressin V1a receptor) was more than 30 µM throughout.

Regarding `CCN(CC)CCN1C(=O)CN=C(c2ccccc2F)c2cc(Cl)ccc21` [FLURAZEPAM], the concentration at half-maximal activity (AC50) was more than 10 µM in test [1]; more than 30 µM in [2]; more than 10 µM in [3]; more than 30 µM in test [4]; more than 30 µM in test [5]; more than 10 µM in test [6]. Besides, the concentration at half-maximal activity (AC50) in test [7] was more than 10 µM; in [8], more than 30 µM; on Estrogen receptor it was more than 30 µM.

In the case of `O=C(O)c1ccccc1Nc1cc(Cl)ccc1C(=O)O` [LOBENZARIT], the concentration at half-maximal activity (AC50) in [1], in test [3], in [4], in [5], in [6] and in test [7] was more than 30 µM in each case. Besides, the AC50 (in test [8]; on Estrogen receptor; on Vasopressin V1a receptor) was more than 30 µM throughout.

Consider `Cc1ncc2n1-c1ccc(Cl)cc1C(c1ccccc1F)=NC2` [MIDAZOLAM], for which the AC50 was more than 10 µM in test [1]; more than 30 µM in [2]; more than 10 µM in test [3]; more than 30 µM in test [4]; more than 30 µM in [5]; more than 10 µM in test [6]. In addition, the half-maximal activity concentration (AC50) in test [7] is more than 10 µM; in [8], more than 30 µM; on Estrogen receptor it was more than 30 µM.

With `C/C(=C\C(=O)OCCCCCCCCC(=O)O)C[C@@H]1OC[C@H](C[C@@H]2O[C@H]2[C@@H](C)[C@H](C)O)[C@@H](O)[C@H]1O` [MUPIROCIN], the AC50 in [1] is more than 10 µM; in test [2] it was more than 10 µM; in [3], more than 10 µM; in test [4] it was more than 30 µM; in test [5] it was more than 30 µM; in test [6], more than 10 µM. Besides, the figures for the AC50 (in test [7]; in test [8]; on Estrogen receptor) were more than 10 µM, more than 30 µM and more than 10 µM, respectively.

Turning to `OCc1cc(C(O)CNCCCCCCOCCCCc2ccccc2)ccc1O` (stereo unspecified) [SALMETEROL], the AC50 in [1] is more than 10 µM; in [2], more than 30 µM; in test [3], more than 10 µM; in test [4] it was more than 30 µM; in [5], more than 30 µM; in [8] it was more than 30 µM. For the same compound, the AC50 on Estrogen receptor was more than 30 µM.

With `CCC(COC(=O)c1cc(OC)c(OC)c(OC)c1)(c1ccccc1)N(C)C` (stereo unspecified) [TRIMEBUTINE], the AC50 is 15 µM in test [1]; more than 30 µM in [2]; more than 30 µM in test [3]; more than 30 µM in test [4]; more than 30 µM in [5]; 1.2 µM in test [6]. The AC50 (in [7]; in test [8]; on Vasopressin V1a receptor) was more than 30 µM throughout.
